Results on 18 compounds are retold here after US5874436A, “Triphenylalkyl antimicrobial agents” (priority 1997, dated 1999).

Converted amounts (≈) assume the structure as drawn.

For one assay, the target named is T1, Kinase A and Spo0F (Bacillus subtilis, UniProt P16497).
T1 construct: made in house; host or cells: E. coli (recombinant, overexpressing)
T1 sequence (P16497 1-606): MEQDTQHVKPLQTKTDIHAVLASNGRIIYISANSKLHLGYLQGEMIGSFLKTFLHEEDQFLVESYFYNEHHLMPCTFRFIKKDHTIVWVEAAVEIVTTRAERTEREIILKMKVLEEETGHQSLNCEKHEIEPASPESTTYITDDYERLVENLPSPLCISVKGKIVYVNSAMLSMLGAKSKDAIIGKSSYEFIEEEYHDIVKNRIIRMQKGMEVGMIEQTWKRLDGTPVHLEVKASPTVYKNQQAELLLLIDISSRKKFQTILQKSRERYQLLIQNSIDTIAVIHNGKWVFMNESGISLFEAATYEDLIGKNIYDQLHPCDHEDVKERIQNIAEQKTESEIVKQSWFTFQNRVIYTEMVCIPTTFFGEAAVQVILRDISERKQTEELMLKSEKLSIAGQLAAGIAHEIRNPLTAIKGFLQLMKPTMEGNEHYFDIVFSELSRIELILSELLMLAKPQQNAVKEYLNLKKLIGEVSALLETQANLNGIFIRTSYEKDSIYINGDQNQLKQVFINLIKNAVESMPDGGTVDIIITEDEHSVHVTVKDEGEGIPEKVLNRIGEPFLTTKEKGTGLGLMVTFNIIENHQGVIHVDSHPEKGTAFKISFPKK
The experiment in a line: Autophosphorylation of Kinase A and transphosphorylation of Spo0F assay (HPK in vitro assay). The assay is classed as biochemical. Particulars: inhibitor concentrations from 1 to 500 μM, [32P]ATP, phosphoimager. The procedure: 1. Autophosphorylation of Kinase A and Transphosphorylation of Spo0F Assay
To study the effect of the compounds of the present invention on the signal transduction process in bacteria, the inhibiting effect of the compounds on the sporulation operon proteins Kinase A and Spo0F was examined. Specifically, the inhibition of autophosphorylation of Kinase A and the transphosphorylation of Spo0F was determined in the following assays. The Spo0F response regulator is the primary substrate for phosphorylation by the protein kinase, Kin A, involved in the sporulation process in bacteria. See D. Burbulys, K. A. Trach, J. A. Hoch, Cell, 64, 545-552 (1991). Spo0F and KinA were prepared from recombinant E. coli overexpressing the proteins (J. Cavanagh et al, Amino Acids, 6, 131-140 (1994) and references therein).
The following stock reagents were either prepared and used promptly or stored at the indicated temperature:
8 X Salts : 2M KCl (5 mL), 1M MgCl2 (800 mL), 1M CaCl2 (100 mL), 10 mg/mL phenylmethylsulfonyl fluoride (200 mL), 1 M dithioreitol (50 mL), 0.25M Na2 EDTA (32 mL) and H2 O mL (-20° C.)
5×Loading Dye: 0.5M TRIS-HCl-pH 6.8 (7.5 mL), 10% SDS (2 mL) 0.1% bromophenol blue (0.5 mL), 100% glycerol (3 mL) and 12.5 M 2-mercaptoethanol (0.3 mL)
1-1.3 mg/mL KinA:15 mM TRIS-HCl, pH 8.0, 6 mM KCl; 4 mM 2-mercaptoethanol; 40% glycerol (-20° C.)
1 mg/mL Spo0F: 17.5 mM TRIS-HCl, pH 8.0; 0.7 mM KCl; 0.7 mM MgCl2; 0.7 mM CaCl2; 5mM 2-mercaptoethanol; 30% Glycerol (-20° C.)
5% Stacking Gel: 40% 29:1 acrylamide:bis acrylamide (1.25 mL), 0.5M TRIS-HCl, pH 6.8 (2.5 mL), 10% SDS (0.1 mL), D-H2 O (6.15 mL) 10% ammonium persulfate (100 mL) and TEMED (25 mL) SDS Running Buffer: TRIS-BASE (3.02 g), glycine (14.4 g) SDS (1 g), D-H2 O (to 1L)
The reaction mixture was prepared from 8×Salts (87 μL), 1M TRIS, pH 8 (118 μL), 50% glycerol (63 μL), Spo0F (14.1 μL) and KinA (7.0 μL). Microcentrifuge tubes were charged with the reaction mixture (18.5 μL) and a 1.0 mM solution of the test compound in 5% DMSO (18.5 μL), and incubated for 15 min on ice. 100 mM ATP solution (3.0 μl, containing 625 μCi [^32 P]ATP) was added, and the mixture left for 10 minutes at room temperature. The reaction was quenched with 5×loading dye (10 μL per tube) and the samples were loaded on a prepared 5% Stacking Gel, or stored on dry ice until ready for use. The prepared wells were filled with SDS Running Buffer, samples were loaded into the wells, and 80 volts were applied to the gel until the dye front reached the bottom of the stacking gel. The voltage was then increased to 250 volts until electrophoresis was complete. Radioactive bands in the gel corresponding to phosphorylated KinA and Spo0F were imaged and quantitated with a phosphoimager.
If either enzyme was inhibited (as evidenced by the absence of labelled protein in the developed gel), an IC50 was calculated by running the assay with a range of inhibitor concentrations from 1 to 500 μM. After electrophoresis of the reaction mixtures, percent inhibition was determined by measuring the concentration of radioactive phosphorus with a phosphoimager and calculating the values using a software program (BioRad Molecular Analyst).

For a further assay, the system named is selected microorganisms. The experiment in a line: MIC antimicrobial assay (NCCLS microdilution broth method). In kind it is cell-based. Here is the method: 2. MIC Anitimicrobial Assay
The in vitro antimicrobial activity of the compounds was determined by the microdilution broth method following the test method from the National Committee for Laboratory Standards (NCCLS). This method is described in the NCCLS Document M7-A2, Vol.10, No.8 "Methods for Dilution Antimicrobial Susceptibility Test for Bacteria that Grow Aerobically--Second Edition."
In this method two-fold serial dilutions of drug in cation supplemented Mueller-Hinton broth are added to wells in microdilution trays. The test organisms are prepared by adjusting the turbidity of actively growing broth cultures so that the final concentration of test organism after it is added to the wells is approximately 5×10^4 CFUs/well).
Following inoculation of the microdilution trays, the trays are incubated at 35° C. for 16-20 hours and then read. […] The amount of growth in the wells containing the test compound is compared with the amount of growth in the growth-control wells (no test compound) used in each tray.
Background: In broth dilution the organism is exposed to a series of concentrations in liquid medium.

As for `O=C(O)c1ccc2cc(OCCC(c3ccccc3)(c3ccccc3)c3ccccc3)ccc2c1` [Example 17, 6-(3,3,3-Triphenylpropoxy)-2-naphthoic acid], on Kinase A and Spo0F, the half-inhibitory concentration (IC50) (usually the concentration that gives 50% inhibition) turned out to be 300 µM. Besides, the minimum inhibitory concentration (MIC) (usually the lowest concentration found to suppress growth) in the assay with selected microorganisms fell in the range of 4 to 64 µg/mL (≈ 8.72 to 140 µM).
The matching figures for `N=C(N)NCCc1ccc(NC(=O)CC(c2ccccc2)(c2ccccc2)c2ccccc2)cc1` [Example 18, N-[4-(2-Guanidinoethyl)phenyl]-3,3,3-triphenylpropionamide]: 51 µM and 4 to 16 µg/mL (≈ 8.65 to 34.6 µM).
The corresponding values for `NCc1ccc2cc(OCCC(c3ccccc3)(c3ccccc3)c3ccccc3)ccc2c1` [Example 20, 6-(3,3,3-Triphenylpropoxy)-2-naphthylmethylamine] are 75 µM and 4 to 8 µg/mL (≈ 9.02 to 18 µM).
The corresponding values for `O=C(O)/C=C/c1ccc(OCCC(c2ccccc2)(c2ccccc2)c2ccccc2)cc1` [Example 22, trans 4-(3,3,3-Triphenylpropoxy)cinnamic acid] are 71 µM and 4 to 64 µg/mL (≈ 9.21 to 147 µM).
Compound `O=C(Cc1ccc(O)cc1)OCCC(c1ccccc1)(c1ccccc1)c1ccccc1` [Example 23, 3,3,3-Triphenylpropyl 2-(4-hydroxyphenyl)acetate] came in with a 50% inhibitory concentration (IC50) at Kinase A and Spo0F of 170 µM. For the same compound, the MIC in the assay on selected microorganisms was > 128 µg/mL.
The matching figures for `O=C(CCc1ccc(O)cc1)OCCC(c1ccccc1)(c1ccccc1)c1ccccc1` [Example 24, 3,3,3-Triphenylpropyl 3-(4-hydroxyphenyl)propionate]: 160 µM and > 128 µg/mL.
In turn, `O=C(/C=C/c1ccc(OCCC(c2ccccc2)(c2ccccc2)c2ccccc2)cc1)NCCO` [Example 25, trans N-(2-Hydroxyethyl)-4-(3,3,3-triphenylpropoxy)-cinnamide] yielded an IC50 against Kinase A and Spo0F of 150 µM. The minimum inhibitory concentration (MIC) in the assay with selected microorganisms is > 128 µg/mL.
The corresponding values for `c1ccc(C(CCOc2ccc(CCC3=NCCCO3)cc2)(c2ccccc2)c2ccccc2)cc1` [Example 26, 4,5-Dihydro-2-{2-[4-(3,3,3-triphenylpropoxy)-phenyl}ethyl}-1,3-oxazine] are 43 µM and 8 to 16 µg/mL (≈ 16.8 to 33.6 µM).
The matching figures for `c1ccc(C(CCOc2ccc(CCc3nnn[nH]3)cc2)(c2ccccc2)c2ccccc2)cc1` [Example 27, 5-{2-[4-(3,3,3-Triphenylpropoxy)phenyl]ethyl}-1H-tetrazole]: 11 µM and 8 to 64 µg/mL (≈ 17.4 to 139 µM).
The matching figures for `C[N+](C)(Cc1ccccc1)Cc1ccc(OCCC(c2ccccc2)(c2ccccc2)c2ccccc2)cc1.[Cl-]` [Example 28, N-Benzyl-N,N-dimethyl-[4-(3,3,3-triphenylpropoxy)-phenyl]methyl ammonium chloride]: 13 µM and 2 µg/mL.
As to `[Cl-].c1ccc(C(CCOc2ccc(C[n+]3ccccc3)cc2)(c2ccccc2)c2ccccc2)cc1` [Example 29, 1-{[4-(3,3,3-triphenylpropoxy)-phenyl]methyl}pyridinium chloride], the IC50 on Kinase A and Spo0F is 6 µM. Also, in the assay on selected microorganisms, the MIC is 2 to 4 µg/mL.
`Cc1n(C)cc[n+]1Cc1ccc(OCCC(c2ccccc2)(c2ccccc2)c2ccccc2)cc1.[Cl-]` [Example 30, 1,2-Dimethyl-3-{[4-(3,3,3-triphenylpropoxy)-phenyl]methyl}imidazolium chloride] registered an IC50 at Kinase A and Spo0F of 28 µM. Also, the MIC against selected microorganisms is 2 to 8 µg/mL.
The corresponding values for `O=C(O)C(=Cc1ccc(OCCC(c2ccccc2)(c2ccccc2)c2ccccc2)cc1)C(=O)O` [Example 31, [4-(3,3,3-Triphenylpropoxy)benzylidene]malonic acid] are 54 µM and > 128 µg/mL.
Turning to `c1ccc(C(CCOc2ccc(Cc3nnn[nH]3)cc2)(c2ccccc2)c2ccccc2)cc1` [Example 32, 5-[4-(3,3,3-Triphenylpropoxy)phenyl]methyl-1H-tetrazole], on Kinase A and Spo0F, the IC50 is 19 µM. This compound also yielded a minimum inhibitory concentration (MIC) against selected microorganisms of 8 to 64 µg/mL (≈ 17.9 to 143 µM).
In turn, `C[N+](C)(C)Cc1ccc(OCCC(c2ccccc2)(c2ccccc2)c2ccccc2)cc1.[Cl-]` [Example 33, N,N,N-Trimethyl-[4-(3,3,3-triphenylpropoxy)phenyl]methylammonium chloride] yielded a concentration for half-maximal inhibition (IC50) at Kinase A and Spo0F of 29 µM. The MIC with selected microorganisms lay within 4 to 8 µg/mL.
Compound `O=C(O)Cc1cccc(OCCC(c2ccccc2)(c2ccccc2)c2ccccc2)c1` [Example 34, 2-[3-(3,3,3-Triphenylpropoxy)phenyl]acetic acid] showed an IC50 against Kinase A and Spo0F of 38 µM. This compound also had an MIC against selected microorganisms of 32 µg/mL (≈ 75.7 µM).
Turning to `O=C(O)CCc1cccc(OCCC(c2ccccc2)(c2ccccc2)c2ccccc2)c1` [Example 35, 3-[3-(3,3,3-Triphenylpropoxy)phenyl]propionic acid], the IC50 at Kinase A and Spo0F stood at 42 µM. For the same compound, in the assay on selected microorganisms, the MIC lay in the range of 4 to 128 µg/mL (≈ 9.16 to 293 µM).
The compound `O=C(O)Cc1ccccc1OCCC(c1ccccc1)(c1ccccc1)c1ccccc1` [Example 36, 2-(3,3,3-Triphenylpropoxy)phenylacetic acid] returned an IC50 at Kinase A and Spo0F of 45 µM. In the assay with selected microorganisms, this compound registered an MIC of 16 to 32 µg/mL (≈ 37.9 to 75.7 µM).
